Earlier results on seven compounds are cited in US8734864B2, “Methods for increasing human growth hormone levels” (Quality IP Holdings, LLC, priority 2012, dated 2014).

For one data set, the system named is hGH secretion. The note with it: for Increase in hGH (in words): other amino acids, literature.
The conditions of data set [1]: subcutaneous injection of 0.06 IU, GH deficient subjects.

For the compound `N=C(N)NCCC[C@H](N)C(=O)O` [arginine], the “Elevation of serum hGH levels” value in the data set on hGH secretion (30 g, males) was 8.6 fold. Besides, in the data set with hGH secretion (intravenous infusion of 183 mg/kg body weight, females), the “Increase of hGH levels” value was greater than 20 fold.
As to “HGH: human growth hormone given by subcutaneous injection to GH deficient subjects (literature)”, in data set [1], the “Mean levels of GH reached” value is 0.4 ng/mL.
Consider `NCCC[C@H](N)C(=O)O` [ornithine], for which the “Increase in hGH (in words)” value in the data set with hGH secretion is recorded as “marked increases in hGH”.
Consider `CSCC[C@H](N)C(=O)O` [methionine], for which the “Increase in hGH (in words)” value with hGH secretion was “marked increases in hGH”.
With `N[C@@H](Cc1c[nH]cn1)C(=O)O` [histidine], in the data set on hGH secretion, the “Increase in hGH (in words)” value is listed as “marked increases in hGH”.
In the case of `N[C@@H](Cc1ccccc1)C(=O)O` [phenylalanine], the “Increase in hGH (in words)” value in the data set on hGH secretion is reported as “marked increases in hGH”.
`NCCCC[C@H](N)C(=O)O` [lysine]: in the data set on hGH secretion, the “Increase in hGH (in words)” value is “marked increases in hGH”.
